Test results reported in publication PMC7814854 (Biochemistry, 2019).

Target: CMP-sialic acid synthetase (NmCSS) (Neisseria meningitidis, UniProt P0A0Z8)
Assay: X-ray crystal structure
Assay type: biochemical

Sequence of CMP-sialic acid synthetase (NmCSS) (P0A0Z8 whole entry): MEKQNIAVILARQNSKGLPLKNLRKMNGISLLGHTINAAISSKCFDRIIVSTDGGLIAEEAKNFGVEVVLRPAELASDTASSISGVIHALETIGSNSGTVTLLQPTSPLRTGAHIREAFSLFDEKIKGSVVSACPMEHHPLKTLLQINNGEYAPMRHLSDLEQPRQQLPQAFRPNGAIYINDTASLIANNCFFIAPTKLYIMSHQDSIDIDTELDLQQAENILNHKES

## CC(=O)N[C@H]1[C@H]([C@H](O)[C@H](O)CO)OC(C(=O)O)=C[C@@H]1O [Neu5Ac2en, 2-deoxy-2,3-dehydro-N-acetylneuraminic acid]
  IC50: 130 ± 10 µM
